Values quoted from earlier work as cited in patent publication US6736837B2, “Method for inducing hypothermia for treating neurological disorders” (priority 1997, dated 2004).
Read-outs that look alike come from different tables or passages of the source.

Tested on: tumors
Conditions: for effect on tumor size: same dose

**Q.** Which effect on tumors (hamsters, 50 mg/kg, during hypothermia with the tumors maintained at normal body temperature) does the source give for `O=c1[nH]cc(F)c(=O)[nH]1` [5-FU, 5-fluoruracil] here?
**A.** regression and disappearance of tumors

**Q.** And the “effect on tumor size” value (hypothermic animals whose tumors were also hypothermic)?
**A.** did not affect tumor size

**Q.** And the “effect on tumor size” value (tumor-bearing animals that were not made hypothermic)?
**A.** did not affect tumor size
